In US8940897B2, “1,3,4-oxadiazole and 1,3,4-thiadiazole β-lactamase inhibitors” (priority 2012, dated 2015):
Structures can show the parent of a compound that is named as a salt.

How the values were obtained:
[1] = system: bacterial strains that express the class D cephalosporinase OXA-15; assay: Synergy MIC / standard BLI potentiation MIC assay, strains expressing OXA-15;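 also: more active means a lower MIC or sMIC than Avibactam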; assay type: cell-based, E. coli; details: in the presence of a β-lactam; comparator Avibactam (CCC)
Procedure: (§1) Unless otherwise indicated, the activity of the BLI compounds can be described by the MIC value obtained from a Synergy MIC assay or a BLI potentiation assay (e.g as described herein), both of which are run in the presence of a β-lactam.
(§2) The experimental protocol was performed according to Clinical and Laboratory Standards Institute (CLSI) guidelines with modifications as described below (CLSI guidelines can be derived from the CLSI document M07-A9 published in January 2012: “Methods for Dilution Antimicrobial Susceptibility Tests for Bacteria That Grow Aerobically; Approved Standard-Ninth Edition”).
(§3) To prepare for MIC testing, frozen glycerol stocks of clinical isolates (Klebsiella pneumoniae, Eschericia coli, Enterobacter spp, Citrobacter spp, or Pseudomonas aeruginosa) were used to streak for isolated colonies on rich, non-selective, tryptic soy agar containing 5% sheep's blood (TSAB). Frozen glycerol stocks of laboratory engineered, isogenic E. coli strains, which contain cloned β-lactamase expressing plasmids were used to streak for isolated colonies on rich, selective LB agar supplemented with 25 μg/mL tetracycline to maintain the plasmid. All strains were incubated at 37° C. for 18-24 hrs.
(§4) On the day of testing, primary cultures were started by scraping off 5-10 colonies from the TSAB plates containing clinical strains or the tetracycline supplemented LB plates containing engineered strains. The clinical strain material was suspended in ˜5 mL of cation adjusted Mueller Hinton Broth (CAMHB) in 14 mL culture tubes. The engineered strain material was suspended in CAMHB (supplemented with 25 μg/mL tetracycline) in 14 mL culture tubes. All strains were incubated at 37° C. with aeration (200 rpm) for ˜2 hrs until the optical density at 600 nm (OD600) was ≧0.1.
(§5) The two compound components of the assay were each diluted in CAMHB and added to the 96-well broth microdilution assay plates. 50 μL of the β-lactam was added to each well of the assay plate in 2-fold dilutions with final concentrations ranging from 128 to 0.13 μg/mL. 25 μL of the BLI compound was added to all wells in the broth microdilution plates at a final concentration of 4 μg/mL. Inoculum cultures were prepared by standardizing the primary cultures to OD600=0.1 and then adding 20 μL of the adjusted primary culture per 1 mL CAMHB for clinical strains or CAMHB (supplemented with tetracycline at 100 μg/mL) for engineered strains, so that the final inoculum density was ˜10^5 colony forming units per milliliter. Diluted inoculum cultures were used to inoculate 25 μl, per well in 96-well broth microdilution assay plates. The final volume of each well was 100 μL and contained a β-lactam at different concentrations, a BLIcompound at 4 μg/mL concentration, the bacterial culture at an OD600 of approximately 0.001 and when necessary tetracycline at 25 μg/mL.
(§6) Plates were incubated for 18-20 hours at 37° C. with aeration (200 rpm). Following incubation, growth was confirmed visually placing plates over a viewing apparatus (stand with a mirror underneath) and then OD600 was measured using a SpectraMax 340PC384 plate reader (Molecular Devices, Sunnyvale, Calif.). Growth was defined as turbidity that could be detected with the naked eye or achieving minimum OD600 of 0.1. MIC values were defined as the lowest concentration producing no visible turbidity.
(§7) The synergy MIC (sMIC) assay determines the concentration of the BLI required to potentiate the activity of a fixed concentration of a β-lactam antibiotic against β-lactamase producing bacterial strains. The experimental protocol was performed according to Clinical and Laboratory Standards Institute (CLSI) guidelines with modifications as described below (CLSI guidelines can be derived from the CLSI document M07-A9 published in January 2012: “Methods for Dilution Antimicrobial Susceptibility Tests for Bacteria That Grow Aerobically; Approved Standard-Ninth Edition”). […]

[2] = system: bacterial strains that express KPC β-lactamases; assay: Synergy MIC / standard BLI potentiation MIC assay, strains expressing KPC β-lactamases; assay type: cell-based; details: for at least one KPC strain and/or a better spectrum of activity against KPC strains than Avibactam; in the presence of a β-lactam
Procedure: as §1, §2, §3, §4, §5, §6, §7

O=C1N2C[C@@H](CC[C@H]2c2nnc(C3CC4(CNC4)C3)o2)N1OS(=O)(=O)O [Compound 750, (2S,5R)-2-(5-(2-azaspiro[3.3]heptan-6-yl)-1,3,4-oxadiazol-2-yl)-7-oxo-1,6-diazabicyclo[3.2.1]octan-6-yl hydrogen sulfate]
activity against bacterial strains that express OXA-15 β-lactamase compared with Avibactam [1]: more active than Avibactam | activity against bacterial strains that express KPC β-lactamase compared with Avibactam [2]: more active than Avibactam

O=C1N2C[C@@H](CC[C@H]2c2nnc(CCN3CCNCC3)o2)N1OS(=O)(=O)O [Compound 776, (2S,5R)-7-oxo-2-(5-(2-(piperazin-1-yl)ethyl)-1,3,4-oxadiazol-2-yl)-1,6-diazabicyclo[3.2.1]octan-6-yl hydrogen sulfate]
activity against bacterial strains that express OXA-15 β-lactamase compared with Avibactam [1]: more active than Avibactam | activity against bacterial strains that express KPC β-lactamase compared with Avibactam [2]: more active than Avibactam

O=C1N2C[C@@H](CC[C@H]2c2nnc(CCNC3CNC3)o2)N1OS(=O)(=O)O [Compound 745, (2S,5R)-2-(5-(2-(azetidin-3-ylamino)ethyl)-1,3,4-oxadiazol-2-yl)-7-oxo-1,6-diazabicyclo[3.2.1]octan-6-yl hydrogen sulfate]
activity against bacterial strains that express OXA-15 β-lactamase compared with Avibactam [1]: more active than Avibactam | activity against bacterial strains that express KPC β-lactamase compared with Avibactam [2]: more active than Avibactam

N=C(N)Nc1nnc([C@@H]2CC[C@@H]3CN2C(=O)N3OS(=O)(=O)O)o1 [Compound 738, (2S,5R)-2-(5-guanidino-1,3,4-oxadiazol-2-yl)-7-oxo-1,6-diazabicyclo[3.2.1]octan-6-yl hydrogen sulfate]
activity against bacterial strains that express OXA-15 β-lactamase compared with Avibactam [1]: more active than Avibactam | activity against bacterial strains that express KPC β-lactamase compared with Avibactam [2]: more active than Avibactam

N[C@H]1C[C@@H](CCc2nnc([C@@H]3CC[C@@H]4CN3C(=O)N4OS(=O)(=O)O)o2)C1 [Compound 754, (2S,5R)-2-(5-(2-((1s,3S)-3-aminocyclobutyl)ethyl)-1,3,4-oxadiazol-2-yl)-7-oxo-1,6-diazabicyclo[3.2.1]octan-6-yl hydrogen sulfate]
activity against bacterial strains that express OXA-15 β-lactamase compared with Avibactam [1]: more active than Avibactam | activity against bacterial strains that express KPC β-lactamase compared with Avibactam [2]: more active than Avibactam

O=C1N2C[C@@H](CC[C@H]2c2nnc(COC3CNC3)o2)N1OS(=O)(=O)O [Compound 744, (2S,5R)-2-(5-((azetidin-3-yloxy)methyl)-1,3,4-oxadiazol-2-yl)-7-oxo-1,6-diazabicyclo[3.2.1]octan-6-yl hydrogen sulfate]
activity against bacterial strains that express OXA-15 β-lactamase compared with Avibactam [1]: more active than Avibactam | activity against bacterial strains that express KPC β-lactamase compared with Avibactam [2]: more active than Avibactam

NC1CC(NCc2nnc([C@@H]3CC[C@@H]4CN3C(=O)N4OS(=O)(=O)O)o2)C1 (stereo partly drawn) [Compound 755, (2S,5R)-2-(5-(((3-aminocyclobutyl)amino)methyl)-1,3,4-oxadiazol-2-yl)-7-oxo-1,6-diazabicyclo[3.2.1]octan-6-yl hydrogen sulfate]
activity against bacterial strains that express OXA-15 β-lactamase compared with Avibactam [1]: more active than Avibactam | activity against bacterial strains that express KPC β-lactamase compared with Avibactam [2]: more active than Avibactam

CNCCCc1nnc([C@@H]2CC[C@@H]3CN2C(=O)N3OS(=O)(=O)O)o1 [Compound 734, (2S,5R)-2-(5-(3-(methylamino)propyl)-1,3,4-oxadiazol-2-yl)-7-oxo-1,6-diazabicyclo[3.2.1]octan-6-yl hydrogen sulfate]
activity against bacterial strains that express OXA-15 β-lactamase compared with Avibactam [1]: more active than Avibactam | activity against bacterial strains that express KPC β-lactamase compared with Avibactam [2]: more active than Avibactam

NC1CCN(CCc2nnc([C@@H]3CC[C@@H]4CN3C(=O)N4OS(=O)(=O)O)o2)CC1 [Compound 775, (2S,5R)-2-(5-(2-(4-aminopiperidin-1-yl)ethyl)-1,3,4-oxadiazol-2-yl)-7-oxo-1,6-diazabicyclo[3.2.1]octan-6-yl hydrogen sulfate]
activity against bacterial strains that express KPC β-lactamase compared with Avibactam [2]: more active than Avibactam

O=C1N2C[C@@H](CC[C@H]2c2nnc([C@@H]3CNCCN3)o2)N1OS(=O)(=O)O [Compound 778, (2S,5R)-7-oxo-2-(5-((S)-piperazin-2-yl)-1,3,4-oxadiazol-2-yl)-1,6-diazabicyclo[3.2.1]octan-6-yl hydrogen sulfate]
activity against bacterial strains that express OXA-15 β-lactamase compared with Avibactam [1]: more active than Avibactam

O=C1N2C[C@@H](CC[C@H]2c2nnc(N3CCNCC3)o2)N1OS(=O)(=O)O [Compound 713, (2S,5R)-7-oxo-2-(5-(piperazin-1-yl)-1,3,4-oxadiazol-2-yl)-1,6-diazabicyclo[3.2.1]octan-6-yl hydrogen sulfate]
activity against bacterial strains that express OXA-15 β-lactamase compared with Avibactam [1]: more active than Avibactam

N=C(N)N[C@H]1C[C@H](c2nnc([C@@H]3CC[C@@H]4CN3C(=O)N4OS(=O)(=O)O)o2)C1 [Compound 748, (2S,5R)-2-(5-((1r,3S)-3-guanidinocyclobutyl)-1,3,4-oxadiazol-2-yl)-7-oxo-1,6-diazabicyclo[3.2.1]octan-6-yl hydrogen sulfate]
activity against bacterial strains that express OXA-15 β-lactamase compared with Avibactam [1]: more active than Avibactam

N[C@H]1C[C@H](NCc2nnc([C@@H]3CC[C@@H]4CN3C(=O)N4OS(=O)(=O)O)o2)C1 [Compound 757, (2S,5R)-2-(5-(((1r,3S)-3-aminocyclobutyl)amino)methyl)-1,3,4-oxadiazol-2-yl)-7-oxo-1,6-diazabicyclo[3.2.1]octan-6-yl hydrogen sulfate]
activity against bacterial strains that express OXA-15 β-lactamase compared with Avibactam [1]: more active than Avibactam

N=C(N)NCc1nnc([C@@H]2CC[C@@H]3CN2C(=O)N3OS(=O)(=O)O)o1 [Compound 704, (2S,5R)-2-(5-(guanidinomethyl)-1,3,4-oxadiazol-2-yl)-7-oxo-1,6-diazabicyclo[3.2.1]octan-6-yl hydrogen sulfate]
activity against bacterial strains that express OXA-15 β-lactamase compared with Avibactam [1]: more active than Avibactam

N[C@H]1CC[C@H](c2nnc([C@@H]3CC[C@@H]4CN3C(=O)N4OS(=O)(=O)O)o2)CC1 [Compound 781, (2S,5R)-2-(5-((1r,4S)-4-aminocyclohexyl)-1,3,4-oxadiazol-2-yl)-7-oxo-1,6-diazabicyclo[3.2.1]octan-6-yl hydrogen sulfate]
activity against bacterial strains that express OXA-15 β-lactamase compared with Avibactam [1]: more active than Avibactam

N[C@H]1CC[C@@H](c2nnc([C@@H]3CC[C@@H]4CN3C(=O)N4OS(=O)(=O)O)o2)CC1 [Compound 780, (2S,5R)-2-(5-((1s,4R)-4-aminocyclohexyl)-1,3,4-oxadiazol-2-yl)-7-oxo-1,6-diazabicyclo[3.2.1]octan-6-yl hydrogen sulfate]
activity against bacterial strains that express OXA-15 β-lactamase compared with Avibactam [1]: more active than Avibactam

N=C(N)N1CCC(c2nnc([C@@H]3CC[C@@H]4CN3C(=O)N4OS(=O)(=O)O)o2)CC1 [Compound 712, (2S,5R)-2-(5-(1-carbamimidoylpiperidin-4-yl)-1,3,4-oxadiazol-2-yl)-7-oxo-1,6-diazabicyclo[3.2.1]octan-6-yl hydrogen sulfate]
activity against bacterial strains that express OXA-15 β-lactamase compared with Avibactam [1]: more active than Avibactam

O=C1N2C[C@@H](CC[C@H]2c2nnc(N3CCNCC3)s2)N1OS(=O)(=O)O [Compound 797, (2S,5R)-7-oxo-2-(5-(piperazin-1-yl)-1,3,4-thiadiazol-2-yl)-1,6-diazabicyclo[3.2.1]octan-6-yl hydrogen sulfate]
activity against bacterial strains that express OXA-15 β-lactamase compared with Avibactam [1]: more active than Avibactam
